Measured values from ChEMBL document CHEMBL5579842, “Modulation of endogenous opioid signaling by inhibitors of puromycin-sensitive aminopeptidase” (Eur J Med Chem, 2024).
Calls of active or inactive are those of the source. The rule behind the calls is not given here.

Legend:
[1] = Cytotoxicity against African green monkey Vero cells by MTT assay; type: toxicity, cell-based; conditions: chlorocebus sabaeus
Vero = assay: Inhibition of protein synthesis in African green monkey Vero cells at 25 uM relative to control; type: functional; conditions: Chlorocebus sabaeus
Aminopeptidase N [2] = molecular target: T1, Aminopeptidase N (Homo sapiens, UniProt P15144); assay: Inhibition of Aminopeptidase N (unknown origin) using Ala-AMC as substrate incubated for 30 mins by SpectraMax microplate reader analysis
Aminopeptidase N [3] = molecular target: T1, Aminopeptidase N; assay: Inhibition of Aminopeptidase N (unknown origin) using Ala-AMC as substrate at 10 uM incubated for 30 mins by SpectraMax microplate reader analysis relative to control
[4] = molecular target: Puromycin-sensitive aminopeptidase (Homo sapiens, UniProt P55786); assay: Inhibition of human N-terminal His-tagged Puromycin-sensitive aminopeptidase extracted from Escherichia coli BL21 STAR (DE3) using alanine-4-methoxy-2-naphthylamide as substrate incubated for 30 mins by SpectraMax microplate reader analysis
Mus musculus [5] = assay: Antinociceptive activity in CF-1 mouse assessed as increase in maximal possible effect at 50 to 100 ug,icv administration in presence of naloxone measured after 65 mins by tail-flick test; type: functional, organism-based; conditions: dose 50-100 µg
Mus musculus [6] = assay: Antinociceptive activity in CF-1 mouse assessed as increase in maximal possible effect at 50 to 100 ug,icv administration in presence of Met-enkephalin measured after 15 mins by tail-flick test; type: functional, organism-based; conditions: dose 50-100 µg
Mus musculus [7] = assay: Antinociceptive activity in CF-1 mouse assessed as analgesic effect at 50 to 100 ug,icv administration measured after 60 mins by tail-flick test; type: functional, organism-based; conditions: dose 50-100 µg
[8] = Stability in mouse plasma assessed as compound remaining at 1 uM measured after 24 hr by LC-MS/MS analysis relative to control; type: ADME, cell-free
Mus musculus [9] = assay: Antinociceptive activity in CF-1 mouse assessed as increase in maximal possible effect at 50 to 100 ug,icv administration measured after 15 mins by tail-flick test; type: functional, organism-based; conditions: dose 50-100 µg
Mus musculus [10] = assay: Antinociceptive activity in CF-1 mouse assessed as increase in maximal possible effect at 50 to 100 ug,icv administration in presence of naloxone measured after 15 mins by hot plate assay; type: functional, organism-based; conditions: dose 50-100 µg
Mus musculus [11] = assay: Antinociceptive activity in CF-1 mouse assessed as increase in Leu-enkephalin level in brain at 50 to 100 ug,icv administration in presence of KCL measured after 65 mins by LC-MS/MS analysis; type: functional, organism-based; conditions: dose 50-100 µg
Mus musculus [12] = assay: Antinociceptive activity in CF-1 mouse assessed as increase in Met-enkephalin level in brain at 50 to 100 ug,icv administration in presence of KCL measured after 65 mins by LC-MS/MS analysis; type: functional, organism-based; conditions: dose 50-100 µg
Mus musculus [13] = assay: Antinociceptive activity in CF-1 mouse assessed as increase in maximal possible effect at 50 to 100 ug,icv administration in presence of naloxone measured after 15 mins by tail-flick test; type: functional, organism-based; conditions: dose 50-100 µg
Mus musculus [14] = assay: Antinociceptive activity in CF-1 mouse assessed as increase in maximal possible effect at 50 to 100 ug,icv administration in presence of Met-enkephalin measured after 15 mins by hot plate assay; type: functional, organism-based; conditions: dose 50-100 µg
Mus musculus [15] = assay: Antinociceptive activity in CF-1 mouse assessed as increase in maximal possible effect at 50 to 100 ug,icv administration in presence of Met-enkephalin measured after 65 mins by tail-flick test; type: functional, organism-based; conditions: dose 50-100 µg
Mus musculus [16] = assay: Antinociceptive activity in CF-1 mouse assessed as increase in MERF level in brain at 50 to 100 ug,icv administration in presence of KCL measured after 65 mins by LC-MS/MS analysis; type: functional, organism-based; conditions: dose 50-100 µg
Mus musculus [17] = assay: Antinociceptive activity in CF-1 mouse assessed as analgesic effect at ip administration measured after 15 mins by hot plate assay; type: functional, organism-based
Mus musculus [18] = assay: Antinociceptive activity in CF-1 mouse assessed as analgesic effect at 50 to 100 ug,icv administration measured after 45 mins by tail-flick test; type: functional, organism-based; conditions: dose 50-100 µg
Mus musculus [19] = assay: Antinociceptive activity in CF-1 mouse assessed as analgesic effect at 50 to 100 ug,icv administration measured after 15 mins by hot plate assay; type: functional, organism-based; conditions: dose 50-100 µg
Mus musculus [20] = assay: Antinociceptive activity in CF-1 mouse assessed as increase in maximal possible effect at 50 to 100 ug,icv administration measured after 60 mins by tail-flick test; type: functional, organism-based; conditions: dose 50-100 µg
Mus musculus [21] = assay: Antinociceptive activity in CF-1 mouse assessed as increase in maximal possible effect at 50 to 100 ug,icv administration in presence of naloxone measured after 65 mins by hot plate assay; type: functional, organism-based; conditions: dose 50-100 µg
Mus musculus [22] = assay: Antinociceptive activity in CF-1 mouse assessed as analgesic effect at ip administration measured after 60 mins by tail-flick test; type: functional, organism-based
Mus musculus [23] = assay: Antinociceptive activity in CF-1 mouse assessed as increase in maximal possible effect at 50 to 100 ug,icv administration in presence of Met-enkephalin measured after 65 mins by hot plate assay; type: functional, organism-based; conditions: dose 50-100 µg

T1 sequence (P15144 whole entry): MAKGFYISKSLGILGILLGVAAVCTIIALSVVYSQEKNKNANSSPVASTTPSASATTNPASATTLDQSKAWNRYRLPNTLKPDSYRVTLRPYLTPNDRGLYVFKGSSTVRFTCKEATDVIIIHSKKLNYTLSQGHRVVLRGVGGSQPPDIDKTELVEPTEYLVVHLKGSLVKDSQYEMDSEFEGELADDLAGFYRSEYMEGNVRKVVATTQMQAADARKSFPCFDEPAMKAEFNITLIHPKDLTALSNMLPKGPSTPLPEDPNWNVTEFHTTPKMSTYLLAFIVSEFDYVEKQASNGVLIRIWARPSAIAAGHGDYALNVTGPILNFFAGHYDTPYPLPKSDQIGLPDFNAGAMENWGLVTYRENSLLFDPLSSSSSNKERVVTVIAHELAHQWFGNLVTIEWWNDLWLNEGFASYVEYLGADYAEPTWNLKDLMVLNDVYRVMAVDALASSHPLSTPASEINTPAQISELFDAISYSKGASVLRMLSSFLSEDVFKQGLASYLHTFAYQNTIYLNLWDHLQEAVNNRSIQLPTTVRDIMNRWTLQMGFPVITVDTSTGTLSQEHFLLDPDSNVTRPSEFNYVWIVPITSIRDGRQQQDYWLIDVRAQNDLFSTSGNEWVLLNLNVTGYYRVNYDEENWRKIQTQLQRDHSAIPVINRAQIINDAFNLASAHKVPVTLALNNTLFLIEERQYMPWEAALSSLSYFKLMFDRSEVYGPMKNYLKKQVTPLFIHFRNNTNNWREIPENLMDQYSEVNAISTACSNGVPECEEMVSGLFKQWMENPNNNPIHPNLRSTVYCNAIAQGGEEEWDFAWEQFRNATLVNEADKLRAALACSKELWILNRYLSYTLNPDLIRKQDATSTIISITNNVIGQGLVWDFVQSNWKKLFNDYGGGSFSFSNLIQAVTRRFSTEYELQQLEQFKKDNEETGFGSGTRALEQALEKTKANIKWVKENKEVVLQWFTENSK
Sequence of Puromycin-sensitive aminopeptidase (P55786 whole entry): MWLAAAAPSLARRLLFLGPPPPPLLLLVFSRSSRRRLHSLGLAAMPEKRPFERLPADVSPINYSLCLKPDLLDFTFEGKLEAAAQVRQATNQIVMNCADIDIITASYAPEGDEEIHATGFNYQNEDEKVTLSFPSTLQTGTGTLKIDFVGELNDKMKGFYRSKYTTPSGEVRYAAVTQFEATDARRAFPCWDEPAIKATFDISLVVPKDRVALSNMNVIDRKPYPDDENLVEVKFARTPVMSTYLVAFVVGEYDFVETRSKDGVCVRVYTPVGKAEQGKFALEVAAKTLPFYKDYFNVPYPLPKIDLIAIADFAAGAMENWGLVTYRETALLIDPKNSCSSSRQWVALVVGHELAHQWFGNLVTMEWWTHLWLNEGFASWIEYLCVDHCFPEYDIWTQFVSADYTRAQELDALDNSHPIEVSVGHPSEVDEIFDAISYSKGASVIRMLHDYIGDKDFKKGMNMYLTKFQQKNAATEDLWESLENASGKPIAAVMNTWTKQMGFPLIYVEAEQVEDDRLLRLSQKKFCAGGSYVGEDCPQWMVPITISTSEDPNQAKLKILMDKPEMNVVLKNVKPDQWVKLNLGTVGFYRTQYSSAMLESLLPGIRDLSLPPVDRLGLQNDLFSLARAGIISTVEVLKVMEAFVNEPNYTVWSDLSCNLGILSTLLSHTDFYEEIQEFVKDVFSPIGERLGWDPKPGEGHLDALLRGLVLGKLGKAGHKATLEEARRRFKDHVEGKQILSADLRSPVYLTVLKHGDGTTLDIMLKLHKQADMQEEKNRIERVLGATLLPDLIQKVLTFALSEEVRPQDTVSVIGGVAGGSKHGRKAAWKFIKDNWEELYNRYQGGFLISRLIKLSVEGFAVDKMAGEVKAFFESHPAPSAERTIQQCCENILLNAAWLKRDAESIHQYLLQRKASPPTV

**Q.** With `CC(C)C[C@H](NC(=O)[C@@H](O)[C@H](N)Cc1ccccc1)C(=O)O` [UBENIMEX] as the compound, how does the CC50 [1] read?
**A.** 25 µM

**Q.** And the inhibition at 25 µM (Vero)?
**A.** 28%

**Q.** For `COc1ccc(C[C@H](N)C(=O)N[C@H]2[C@@H](O)[C@H](n3cnc4c(N(C)C)ncnc43)O[C@@H]2CCl)cc1`, which inhibition at 25 µM (Vero) is on record?
**A.** 26.1%

**Q.** And the IC50 (Aminopeptidase N [2])?
**A.** > 100 µM

**Q.** For `CN(C)c1ncnc2c1ncn2[C@@H]1O[C@H](CCl)[C@@H](NC(=O)[C@@H](CSC(c2ccccc2)c2ccccc2)NC(=O)OC(C)(C)C)[C@H]1O`, which CC50 [1] is on record?
**A.** 67.4 µM

**Q.** What about the inhibition at 25 µM (Vero) of the same compound?
**A.** 0%

**Q.** What about the inhibition (Aminopeptidase N [3]) of the same compound?
**A.** 0%

**Q.** With `CN(C)c1ncnc2c1ncn2[C@@H]1O[C@H](CCl)[C@@H](NC(=O)[C@H](CSC(c2ccccc2)c2ccccc2)NC(=O)OC(C)(C)C)[C@H]1O` as the compound, how does the CC50 [1] read?
**A.** > 100 µM

**Q.** What about the inhibition at 25 µM (Vero) of the same compound?
**A.** 3%

**Q.** And the inhibition (Aminopeptidase N [3])?
**A.** 4.6%

**Q.** Which CC50 [1] does the source give for `CN(C)c1ncnc2c1ncn2[C@@H]1O[C@H](CO)[C@@H](NC(=O)[C@@H](N)CSC(c2ccccc2)c2ccccc2)[C@H]1O` here?
**A.** > 100 µM

**Q.** And the inhibition at 25 µM (Vero)?
**A.** 0%

**Q.** And the IC50 [4]?
**A.** 0.007 µM

**Q.** Which inhibition at 25 µM (Vero) does the source give for `CN(C)c1ncnc2c1ncn2[C@@H]1O[C@H](CCl)[C@@H](NC(=O)[C@H](CSC23CC4CC(CC(C4)C2)C3)NC(=O)OC(C)(C)C)[C@H]1O` here?
**A.** 22.1%

**Q.** What about the inhibition (Aminopeptidase N [3]) of the same compound?
**A.** 0%

**Q.** With `CN(C)c1ncnc2c1ncn2[C@@H]1O[C@H](CO)[C@@H](NC(=O)[C@H](N)CSC(c2ccccc2)c2ccccc2)[C@H]1O` as the compound, how does the CC50 [1] read?
**A.** 46 µM

**Q.** What about the inhibition at 25 µM (Vero) of the same compound?
**A.** 0%

**Q.** What does the source list for `CN(C)c1ncnc2c1ncn2[C@@H]1O[C@H](CCl)[C@@H](NC(=O)[C@H](N)CSC(c2ccccc2)c2ccccc2)[C@H]1O`?
**A.** inhibition at 25 µM (Vero): 0%; inhibition (Aminopeptidase N [3]): 38.9%

**Q.** Which results are given for `CN(C)c1ncnc2c1ncn2[C@@H]1O[C@H](CCl)[C@@H](NC(=O)[C@@H](N)CSC(c2ccccc2)c2ccccc2)[C@H]1O`?
**A.** Activity (Mus musculus [5]): inactive; Activity (Mus musculus [6]): Active; Activity (Mus musculus [7]): Active; Stability [8]: 116.7%; CC50 [1]: > 100 µM; Activity (Mus musculus [9]): Active; inhibition at 25 µM (Vero): 0%; Activity (Mus musculus [10]): inactive; Activity (Mus musculus [11]): Active; Activity (Mus musculus [12]): inactive; Activity (Mus musculus [13]): inactive; Activity (Mus musculus [14]): Active; IC50 [4]: 0.007 µM; Activity (Mus musculus [15]): Active; Activity (Mus musculus [16]): Active; Activity (Mus musculus [17]): inactive; IC50 (Aminopeptidase N [2]): 2.6 µM; Activity (Mus musculus [18]): Active; Activity (Mus musculus [19]): Active; Activity (Mus musculus [20]): Active; inhibition (Aminopeptidase N [3]): 55.8%; Activity (Mus musculus [21]): inactive; Activity (Mus musculus [22]): inactive; Activity (Mus musculus [23]): Active

**Q.** Which CC50 [1] does the source give for `CN(C)c1ncnc2c1ncn2[C@@H]1O[C@H](CO)[C@@H](NC(=O)[C@@H](N)CSC23CC4CC(CC(C4)C2)C3)[C@H]1O` here?
**A.** 17.6 µM

**Q.** What about the inhibition at 25 µM (Vero) of the same compound?
**A.** 24%

**Q.** And the inhibition (Aminopeptidase N [3])?
**A.** 99.1%

**Q.** For `CN(C)c1ncnc2c1ncn2[C@@H]1O[C@H](CCl)[C@@H](NC(=O)[C@@H](N)CSC23CC4CC(CC(C4)C2)C3)[C@H]1O`, which inhibition at 25 µM (Vero) is on record?
**A.** 10.4%

**Q.** And the IC50 [4]?
**A.** 0.005 µM

**Q.** What about the IC50 (Aminopeptidase N [2]) of the same compound?
**A.** 0.084 µM

**Q.** What about the inhibition (Aminopeptidase N [3]) of the same compound?
**A.** 99.1%

**Q.** What does the source list for `O=C(O)CNC(=O)C(CS)Cc1ccccc1` (centres undefined) [THIORPHAN]?
**A.** CC50 [1]: > 100 µM; inhibition at 25 µM (Vero): 70.3%; IC50 [4]: 57.3 µM; IC50 (Aminopeptidase N [2]): > 100 µM; inhibition (Aminopeptidase N [3]): 0%

**Q.** What does the source list for `CC(C)C[C@@H](C(=O)N[C@H](C(=O)OC1CCCC1)c1ccccc1)[C@H](O)C(=O)NO` [TOSEDOSTAT]?
**A.** CC50 [1]: 12.7 µM; inhibition at 25 µM (Vero): 34.5%

**Q.** Which CC50 [1] does the source give for `COc1ccc(C[C@H](N)C(=O)N[C@H]2[C@@H](O)[C@H](n3cnc4c(N(C)C)ncnc43)O[C@@H]2CO)cc1` [PUROMYCIN] here?
**A.** 2.76 µM

**Q.** What about the inhibition at 25 µM (Vero) of the same compound?
**A.** 99%
